Data from patent US6133273A, “Pyrazolopyrimidine-2,4-dione sulfonamides” (American Home Products Corporation, priority 1999, dated 2000).

How the values were obtained:
[1] = tested on: promoter region of the human calcitonin gene (luciferase reporter, C1-3 cells); experiment: Calcitonin/Luciferase Reporter Gene Expression Assay; settings: Homo sapiens, C13, 12 h, read-out: TAR (transcription activation ratio)
Description: (§1) This assay was used to determine the ability of a compound to stimulate transcription of a luciferase reporter gene regulated by 3 kb of the promoter region of the human calcitonin gene.
(§2) C1-3 cells were plated at a density of 6,500-7,500 cells per well in a 96-plate microtiter plate. Twenty-four to forty-eight hours later, compounds were added to the wells in triplicate. Compounds were tested at a concentration of 10 μg/mL in 0.5% DMSO.
(§3) The production of light is measured on a luminometer.
(§4) TAR Ratio: Stimulation of calcitonin promoter-dependent transcription is expressed as a ratio of luciferase activity (LUCI) in the presence of test compound compared to the LUCI activity in the untreated control: [formula]

[2] = tested on: C1-3 cell line (calcitonin secretion); experiment: Calcitonin Secretion/RIA Assay; format: cell-based, human; settings: active if >2.5; for fold induction at 30 µM: Homo sapiens, C13, ratio of calcitonin secretion vs untreated control; for Secretion Ratio: 30 μM, ratio of calcitonin secretion vs untreated control
Description: Cell Line: C1-3 (Parent Cell Line: TT-medullary thyroid carcinoma),
Reagent A--(Anti-Calcitonin)
Regent C--(Anti-Goat Precipitant)
Regent D--(Zero Standard).
Reagents E-I--(Calcitonin Standards)
Reagents J-K (Calcitonin Controls: Level and Level 2)
1. Glass tubes were labeled to include Total Count (TC), Nonspecific Binding (NSB), Maximum Binding (Bo), Standards, Controls and Patient Sera in duplicate.
2. […] of Standard Zero (Reagent D) was added to tubes 3 through 6 (NSB and Bo).
3. […] of Standards* (Reagents E-1) was added to tubes 7-16 as follows:
4. […] of Patient Serum 1 was added to tubes 21 and 22, Patient Serum 2 was added to tubes 23 and 24, etc.
5. […] of Reagent L (NSB Buffer) was added to tubes 3 and 4.
6. […] of Reagent A (Anti-Calcitonin) was added to all tubes except tubes 1 & 2 (TC) and tube 3 & 4 (NSB). All tubes were vortexed, covered with parafilm or foil and incubated 44±6 hours at 2-8° C.
7. […] All tubes were vortexed, covered with parafilm or foil and incubated 22±3 hours at 2-8° C.
8. Reagent C (Anti-Goat Precipitant) was mixed gently but thoroughly by inverting the vial several times before use. 1 mL Reagent C was added to all tubes except 1 and 2 (TC). Tubes were vortexed and incubated 20 minutes at room temperature.
9. All tubes were centrifuged at 1300-1500×g for 15 minutes at 2-8° C.
10. Supernatant was decanted immediately after centrifugation taking care to leave the precipitate intact.
11. Tubes were counted 4 minutes or longer.
Secretion Ratio: Stimulation of calcitonin secretion is expressed as a ratio of secretion activity in the presence of test compound compared to the secretion activity in the untreated control: [formula]

[3] = Serum Calcium/Plasma Calcitonin Determination Assay (acute/subacute, rats); format: in vivo, Sprague Dawley rats; settings: subacute, sc, n=8, 30 mg/kg/2x/day; for % Decrease Serum Calcium: Examples 4 and 7 marked * (p<0.05 vs. vehicle); for % Increase Plasma Calcitonin: Examples 5 and 7 marked * (p<0.05 vs. vehicle)
Description: This assay was used to evaluate the ability of a test compound to decrease serum calcium and increase plasma calcitonin in rats using either an acute or sub-acute protocol. […]
Subacute Administration Study: After 72 hours acclimatization, young male or female Sprague Dawley rats weighing 170-250 g were randomly divided in groups of 8. The rats were fasted and given deionized H2 O 18 hours prior to the start of the study. The purpose of the fasting is to reduce the variability in serum calcium and plasma calcitonin levels. Each rat was weighed.
C-G Test Compounds 30 mg/kg/2x/day ip or sc
^b In vehicle and test compound groups, the treatments that the
Measurements: Body weight, serum calcium levels and plasma calcitonin levels.
Data Evaluations: The difference in serum calcium and plasma calcitonin between a treatment group and the vehicle group was determined using a one-way analysis of variance with Dunnett's test, or other multiple comparison methods. Compounds were designated active if .rho.<0.05 vs. vehicle value.

PDE-IV = experiment: Inhibition of Phosphodiesterase IV (PDE-IV) isolated from human U937 cells; format: biochemical; settings: U937 cell PDE-IV, 1 μM [3H]-cAMP, 37° C., test compound 0.001 μM to 10 μM
Description: This assay was used to biochemically assess the ability of a test compound to inhibit PDE-IV isolated from a U937 cell line, where PDE-IV refers to the cGMP-insensitive, cAMP-selective PDE.
Cell Culture: U937 cells were grown in RPMI 1640 medium supplemented with 10% heat-inactivated fetal calf serum and Penicillin/Streptomycin (100 units/100 μg per mL) in a humidified 5% CO2 atmosphere at 37° C. Starter cells were maintained in continuous logarithmic growth by seeding them in 75 cm^2 vented tissue culture flasks at a concentration of 3×10^4 cells/mL and passing them every 3-4 days when the cells reached approximately 8×10^5 cells/mL. For experiments, 3-4 day starter cells were seeded in 225 cm^2 flasks at 1×10^5 cells/mL and harvested 3-4 days later at approx. 6×10^5 cells/mL.
Isolation of PDE-IV: U937 cells were activated with 10 μM dibutyryl cAMP for a period of 4 hours (to up-regulate PDE-IV) and then harvested by centrifugation at 1200×g for 10 min in 250 mL conical centrifuge tubes. The pellet from each 200 mL flask was resuspended in 5 mL buffer A [10 mM Tris-HCl, 5 mM MgCl2, 4 mM EGTA, 5 mM 2-mercaptoethanol, 1 μM leupeptin, 1 μM pepstatin A, and 5 μM phenylmethyl sulfonyl fluoride (PMSF) (pH 7.8)], and the cells were lysed using 3 cycles of freezing (3 min in dry ice/acetone) followed by thawing (warm water). […] To determine which families of PDEs were present, fractions may be assayed for hydrolytic activity with 1 μM [^3 H]-cAMP or 1 μM [^3 H]-cGMP. Additionally, 1 μM [^3 H]-cAMP assays were conducted in the presence of 10 μM rolipram, 10 μM cGMP, or calmodulin (1 unit/0.4 mL plus 10 μM CaCl2).
When prepared in this manner, approximately 80% of total cAMP PDE activity is eluted by Buffer B containing 0.7 M sodium acetate. This PDE activity consists of>90% PDE-IV (as evidenced by its susceptibility to inhibition by rolipram.
PDE assay: PDE activity was measured using a modification of the radioisotope procedure previously described by Thompson et al. (Thompson, W. J., Terasaki, W. L., Epstein, P. M. and Strada, S. J. Adv, Cyclic Nucleotide Res. 1979, 10, 69). Reaction mixtures (0.4 mL) contain 40 mM Tris-HCl (pH 7.8), 4 mM 2-mercaptoethanol, 5 mM MgCl2, 0.1 μM leupeptin, 0.1 μM pepstatin A, 0.1 μM PMSF, 1 μM [3H]-cAMP or 1 μM [^3 H]-cGMP (~200,000 DPM), and enzyme to initiate the reaction. ^3 H-cAMP substrate was prepared as follows: A stock solution of ^3 H-cyclic nucleotide (1000 μCi/mL) was diluted 1:10 in 50% EtOH. 200 μl of this diluted stock solution was added to a cold (unlabeled) cyclic nucleotide solution, made at a concentration of 4 μM. 100 μl of this solution was used per assay tube to achieve a final concentration of 1 μM cyclic nucleotide per assay tube (200,000 DPM). Enzyme activity was determined at 37° C. Reactions were terminated by boiling, incubating with snake venom, and cooling as previously described (Thompson et al., 1979). The reaction mixture was applied to a (0.8×8.5 cm) column containing 0.4 g Dowex I-X8 affinity resin; reaction tubes were rinsed with 0.5 mL of methanol; and this, along with an extra 1 mL of methanol, was applied to the column to elute the ^3 H-reaction products. After all liquid has passed through the column, the column was plunged with a 12 cc syringe plunger. Each column's eluate was collected in a 20 mL scintillation vial containing 10 mL aquasol-2 and counted by scintillation spectrophotometry. [^3 H]-adenosine or [^3 H]-guanosine recovery was corrected for background DPM determined in the absence of enzyme. The amount of enzyme and duration of assay were adjusted to ensure that less than 25% of the substrate was consumed under these conditions.
Measurements: Inhibition by a test compound was measured as a percent reduction of total PDE activity, and calculated as follows: [formula] where A is the PDE activity (mean DPM-background DPM) in the presence of test compound, and B is the total PDE-IV activity (mean DPM-background DPM) in the absence of test compound. […]

[4] = tested on: promoter region of the human calcitonin gene (luciferase reporter, C1-3 cells); settings: c1-3 tt cells, 12 h, 30 µM
Description: as §1, §2, §3, §4

Compound | fold induction at 30 µM [1] | fold induction at 30 µM [2] | % Decrease Serum Calcium [3] [%] | % Increase Plasma Calcitonin [3] [%] | % Inhibition of PDE IV (normalized to rolipram) (PDE-IV) [%] | Secretion Ratio [2] | TAR (transcription activation ratio) [4]
CCCCn1c(=O)c2nn(S(=O)(=O)c3cc(Cl)c(Cl)s3)cc2n(CCCC)c1=O [Example 6, 4,6-Dibutyl-2-(4,5-dichloro-thiophene-2-sulfonyl)-2,4-dihydro-pyrazolo[4,3-d]pyrimidine-5,7-dione] | 1.69 | 3.4 | 0 | 12 | 100 | – | –
CCCCn1c(=O)c2cn(S(=O)(=O)c3c(C)nn(C)c3Cl)nc2n(CCCC)c1=O [Example 7] | 2.13 | 2.92 | 4 | 80 | – | – | –
4,6-Dibutyl-1-ethanesulfonyl-1,4-dihydro-pyrazolo[4,3-d]pyrimidine-5,7-dion [Example 10] | – | – | – | – | 45 | 2.90 | 1.43
CCCCn1c(=O)c2nn(S(=O)(=O)c3ccc(C(C)(C)C)cc3)cc2n(CCCC)c1=O [Example 5, 4,6-Dibutyl-2-(4-tert-butyl-benzenesulfonyl)-2,4-dihydro-pyrazolo[4,3-d]pyrimidine-5,7-dione] | 2.27 | 4.5 | 1 | 101 | 63 | – | –
CCCCn1c(=O)c2nn(S(=O)(=O)c3ccc4ccccc4c3)cc2n(CCCC)c1=O [Example 4, 4,6-Dibutyl-2-(2-naphthalenesulfonyl)-2,4-dihydro-pyrazolo[4,3-d]pyrimidine-5,7-dione] | 1.75 | 4.91 | 5 | 8 | 33 | – | –
4,6-Dibutyl-1-(3,5-dimethyl-isoxazole-4-sulfonyl)-1,4-dihydro-pyrazolo[4,3- d]pyrimidine-5,7-dione [Example 8] | – | – | – | – | 26 | 3.23 | 2.14
Cn1c(=O)c2cn(S(=O)(=O)CCCCl)nc2n(C)c1=O [Example 21, 2-(3-Chloro-propane-1-sulfonyl)-5,7-dimethyl-2,7-dihydro-pyrazolo[3,4-d]pyrimidine-4,6-dione] | 1.2 | 1.02 | – | – | 68 | – | –
CCCCn1c(=O)c2cn(S(=O)(=O)c3ccc(OC(F)(F)F)cc3)nc2n(CCCC)c1=O [Example 14, 5,7-Dibutyl-2-(4-trifluoromethoxy-benzenesulfonyl)-2,7-dihydro-pyrazolo[3,4-d]pyrimidine-4,6-dione] | 2.22 | 4.29 | – | – | 92 | – | –
